Measurements as given in article PMC9862096, “Interaction of a Homologous Series of Amphiphiles with P-glycoprotein in a Membrane Environment—Contributions of Polar and Non-Polar Interactions” (Pharmaceutics, 2023).

Columns and labels:
[1] = Calculation of local concentrations of the amphiphiles in membrane and aqueous medium from partition coefficients; settings: for fraction associated with the lipid bilayer of the native membrane: 0.107 mg of protein per mL; for concentration associated with the membrane: total concentration 60 µM; for fraction associated with the membranes: IAAP displacement conditions, 1 mg of protein per mL; for fraction of amphiphile in the membrane associated with proteins: low amphiphile concentrations, away from saturation; for concentration in the aqueous phase: total amphiphile 50 µM, partition to native membranes
Text: A major limitation of the models used to analyze the effects on P–gp’s ATPase activity and IAAP displacement is the use of global concentrations. Interaction of the amphiphiles with P–gp is considered to occur from the membrane and, therefore, what is relevant is the amphiphile concentration in the lipid bilayer where P–gp is embedded. The importance of using local concentration in the analysis of the interaction of small molecules with membrane proteins has been pointed out before (e.g., [33, 35, 37, 46, 84, 85]), but, unfortunately, it is still overlooked. The local concentrations may be calculated from the partition coefficient of the amphiphiles between the aqueous media and the model membranes with the relevant lipid composition. […] An intermediate affinity is obtained for NBD–LysoMPE in spite of its longer aliphatic chain. This is due to its bigger and much polar (charged) head group. From the partition coefficients one may calculate the local concentration of amphiphile in the membrane for a given total concentration of amphiphile. At the concentration of native membranes used in the ATPase assays (0.107 mg of protein per mL), 2% of the NBD–C4 is associated with the lipid bilayer of the native membrane (see Supplementary Information, Section S10 for details). As expected, for the more lipophilic amphiphiles, the fraction associated with the lipid bilayer increases, being 53% for NBD–C8 and 13% for NBD–LysoMPE. In the IAAP displacement experiments, the amount of native membranes is almost 10 times higher (1 mg of protein per mL), leading to 18% of NBD–C4 associated with the membranes, and 91% and 58% for the case of NBD–C8 and NBD–LysoMPE, respectively.
S10 – Calculation of the local concentration of the amphiphiles in the membrane and in the […]
The concentration of phospholipids (PL) in a solution containing native membranes is calculated from the concentration of protein and the ratio of PLs to prot eins (0.57 g PL/g P , average PL molar mass of 750 g/mol). The volume of the lipid bilayer (VLb) is then calculated considering a density of 1 g/cm3 for the phospholipids.
Typical values for the conditions of the ATPase activity assays are given be low:
The volume occupied by proteins in the membrane (VP) was calculated considering a density of 1.2 g/cm3 (being 8.9 × 10‐5 × VT, and the total volume of native membranes is 1.5 × 10‐4 × VT.
The IAAP displacement assay was performed with a protein concentration of 1 g/L, leading to proportionally higher volumes of the lipid bilayer and proteins.
Knowing the partition coefficients of the ligand one may calculate the fractions in each medium: […]
The fraction of amphiphile in the membrane (lipid bilayer plus membrane proteins), is given by:
MLbP PLKVKV KVWL→→ →b WP WM+ fffVK VK VVK VK VLLL WL=+= =bPP PM , WP L++ ++→→ →→b WP WLbP PWP Lb WPbP P where WMK → is the partition coeff icient obtained experimentally between the aqueous media P and the native membranes.
The above equations are only valid if the system is away from saturation (at low concentrations of amphiphiles relative to the binding agents). At relatively high amphiphile concentrations, the proteins may become saturated, leading to a decrease in the apparent partition coefficient and to an increase in the relative fraction of amphiphile associated with the lipid bilayer.
From the above equations one may calculate directly the concentration of amphiphile in each […]
To evaluate if the aqueous medium is saturated, this concentration sho uld be co mpared with the ligand critical aggregation concentration. P ossible perturbation of the lipid bilayer is best evaluated from the mo la r ratio of lipids to ligand bound (PL:L)

[2] = Association (partition) of the NBD amphiphiles with native membranes, NBD fluorescence; format: physicochemical, High-Five insect cells; settings: for LogKP, association with the native membranes: 37 °C, simplified ATPase assay buffer; for KPW→M: aqueous phase to native membrane
Procedure: The membranes were diluted to the chosen concentration with simplified ATPase assay buffer and warmed to 37 °C. The NBD amphiphiles were added from stocks in DMSO (final DMSO 1% v/v) by squirting the required volume into the membrane solution under gentle vortex. Fluorescence intensity was measured after 15 to 30 min incubation at 37 °C using a Cary Eclipse spectrofluorimeter (Varian, Singapore). The path length of the sample container was selected to guarantee that scattering at the excitation wavelength was smaller than 0.1 while maintaining a good signal/noise ratio (3, 5, or 10 mm).
The increase in fluorescence of the NBD amphiphiles when associated with the model membranes was well described by a simple partition (Equation (S3)). The low affinity of the less lipophilic amphiphiles for the native membranes required the use of high membrane concentrations, and the fluorescence was measured with the plate reader SpectraMax iD5 (Molecular Devices, Berkshire, UK), where the reading setup is not very sensitive to scatter. To guarantee that the high scatter intensity was not leading to artifacts in the measured fluorescence intensity of NBD–C4, titrations of NBD-C6 and NBD–C8 were also performed in the same plate. For these two latter amphiphiles, the results obtained for the partition coefficient were similar to those obtained for experiments with low scatter intensity. A small decrease in the fluorescence intensity from NBD–C8 was nevertheless observed at very high scatter intensities (OD ≥ 0.5), which was used to correct the signal from the less lipophilic amphiphiles, see Supplementary Information (Figure S5 and Equation (S4)). The molar volume considered for the lipid was 0.8 dm^3/mol, and 1.2 g/mL was considered for the density of the membrane proteins.
S3 – Partition of the NBD amphiphiles to lipid bilayers and native membranes The fluorescence increase that accompanies the association of the NBD amphiphiles with the model membra nes was well defined by a simple partition, equation S3. […]
where IfW and If M are respec ti vel y the fluorescence intensity when all fluorescent amphiphile is in the aqueous phase and ass oci ated with the membranes, LbK is the partition co eff icient P between the aqueous and the lipid bilayer, V is the molar vo l u m e of the lipid when in the lipid L bi l ayer, and [L] is the lipid concentration.
To characterize the association of the NBD amphiphiles with the native membranes the whole membrane vo lume was considere d, including the lipid bilayer and the membrane proteins. For the ca se of the less lipophilic amphiphiles NBD‐C4 and NBD‐C6, a sig nif ica nt scatter from the […]
both to the larger size of the vesicles (ca 1 µm diameter, [1]) and to the high refractive index of the native membranes. The magnitude of the scatter effect was quantified through the best fit […]
partition to the membranes at co n ce ntrations where scatter is not significant. The modified […]
where s is the scatter correction factor for a given concentration of native membranes, If W and IfM are respectively the fluorescence intensity when all fluorescent amphiphile is in the aqueous phase and associated with the membranes, WMK → is the partition coefficient between the P aqueous phase and the native membrane, V is the molar volume of the lipid when in the L membrane and [L] the molar concentration of the membrane lipids, V is the vo lume occupied P by 1 g of membrane protein (assuming a density of 1.2 g/mL) and [P] is the protein concentration in units of ma ss per volume.
Typical results obtained for the variation of the fluorescence intensity at 540 nm of the NBD‐Cn fluorophores equilibrated with increasing concentrations of native membranes, are shown in figure S3. The fluorescence intensity was measured in black 96 well plates with the plate reader […]
SpectraMax iD5. The NBD‐Cn concentrations we re 0.5 µM for NBD‐C8 , 1 µM for NBD‐C6, and 2 µM for NBD‐C4, and the total volume per well was 150 µL. […]

[3] = membrane volume = phospholipid bilayer and P–gp (binding to the protein P–gp only)
[4] = membrane volume = phospholipid bilayer and all proteins (binding to all membrane proteins with equal affinity)

SMILES	fraction associated with the lipid bilayer of the native membrane ([1]; ATPase assay conditions) [%]	concentration associated with the membrane ([1]; ATPase assay conditions) [µM]	concentration associated with the membrane ([1]; IAAP assay conditions (membrane 10-fold higher)) [µM]	fraction associated with the membranes [1] [%]	fraction of amphiphile in the membrane associated with proteins [1] [%]	LogKP, association with the native membranes [2]	KPW→M [2, 3]	KPW→M [2, 4]	concentration in the aqueous phase ([1]; ATPase assay conditions) [µM]	concentration in the aqueous phase ([1]; IAAP assay conditions) [µM]
CCCCNc1ccc([N+](=O)[O-])c2nonc12 [NBD–C4]	2	1.4	11	18	72	2.75 ± 0.20	1.4 × 10^3	5.7 × 10^2		
CCCCCCCCNc1ccc([N+](=O)[O-])c2nonc12 [NBD–C8]	53			91	15	3.95 ± 0.14	2.2 × 10^4	9.0 × 10^3	21	4
CCCCCCCCCCCCCC(=O)OCC(O)COP(=O)(O)OCCNc1ccc([N+](=O)[O-])c2nonc12 (stereo not drawn) [NBD–LysoMPE]	13			58		4.34 ± 0.25			12	2
